In patent publication US10138260B2, “Compounds of phosphinanes and azaphosphinanes, a process for their preparation and pharmaceutical compositions containing them” (LES LABORATOIRES SERVIER, priority 2016, dated 2018) one finds inhibition data, which are given here for eleven molecules.

The assay has as its target T1, TAFIa (Homo sapiens, UniProt Q96IY4).
T1 sequence (Q96IY4 115-423): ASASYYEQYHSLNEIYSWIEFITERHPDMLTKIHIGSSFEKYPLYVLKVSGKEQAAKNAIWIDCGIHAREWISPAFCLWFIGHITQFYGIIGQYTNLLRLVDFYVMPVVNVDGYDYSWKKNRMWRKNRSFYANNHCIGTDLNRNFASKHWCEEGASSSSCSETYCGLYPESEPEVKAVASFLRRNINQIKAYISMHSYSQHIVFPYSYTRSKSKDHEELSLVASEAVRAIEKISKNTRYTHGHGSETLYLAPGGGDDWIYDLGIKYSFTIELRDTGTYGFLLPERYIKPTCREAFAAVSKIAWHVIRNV
The assay is described as follows: Inhibition of TAFIa (hippuryl-Arg test). Type of assay: biochemical. To be noted: TAFIa 2 nM, hippuryl-arginine 5 mM, 45 minutes, relative to control containing the carrier; for inhibition at 0.01 µM: compound at 10 nM; for inhibition at 0.02 µM: compound at 20 nM. The procedure:
Human TAFI (4 nM) is incubated with human thrombin (10 nM) and human thrombomodulin (5 nM) in the presence of calcium (10 mM). After incubation for 20 minutes, the activation reaction is stopped by addition of PPACK (1 μM final), an irreversible thrombin inhibitor.
The reactions take place in Hepes buffer (25 mM Hepes, 137 mM NaCl, 3.5 mM KCl)+0.1% bovine albumin, pH 7.4 at 28° C. and with stirring.
The test compound is added to the solution of TAFIa (2 nM) and incubated for 45 minutes in the presence of hippuryl-arginine (5 mM). The reaction is stopped by addition of hydrochloric acid (1M) neutralised subsequently with sodium hydroxide (1M), and then the mixture is buffered with disodium hydroxyphosphate (1M pH 7.4). […] The reaction mixture is stirred (vortex) and then centrifuged. The supernatant is transferred to a 96-well microplate, and the absorbance is measured using a spectrophotometer at 405 nm (Spectramax plus, Molecular Devices).
The OD value of a well containing the reagents without TAFI is subtracted from all the OD values measured. The percentage inhibition of TAFIa at a given concentration of the test compound is determined by means of the following formula: % inhibition=100−[(OD compound×100)/OD carrier]
The compounds are evaluated at 10 nM and 20 nM under the experimental conditions described above and the results are expressed as the percentage inhibition relative to a control containing the carrier in the absence of compound.

In general, inhibition refers to the change of the read-out against control, counted positive when it falls. Higher therefore signals a response far below the control. In turn, `NCCCC[C@@]1(C(=O)O)CN(Cc2ccccc2-c2ccncc2)CCP1(=O)O` [Example 252, (3S)-3-(4-AMINOBUTYL)-4-HYDROXY-4-OXO-1-[(2-PYRIDIN-4-YLPHENYL)-METHYL]-1,4-AZAPHOSPHINANE-3-CARBOXYLIC ACID] registered an inhibition at 0.01 µM of 76% and an inhibition at 0.02 µM of 90%.

As to `NCCCC[C@@]1(C(=O)O)CN(Cc2ccc(F)cc2-c2ccncc2)CCP1(=O)O` [Example 192, (3S)-3-(4-AMINOBUTYL)-1-[(4-FLUORO-2-PYRIDIN-4-YLPHENYL)METHYL]-4-HYDROXY-4-OXO-1,4-AZAPHOSPHINANE-3-CARBOXYLIC ACID], the inhibition at 0.01 µM turned out to be 77% and testing at 0.02 µM gave an inhibition of 91%.

In the case of `Cc1ccc(-c2cc(Cl)ccc2CN2CCP(=O)(O)[C@](CCCCN)(C(=O)O)C2)cc1` [Example 218, (3S)-3-(4-AMINOBUTYL)-1-[[4-CHLORO-2-(4-METHYLPHENYL)PHENYL]METHYL]-4-HYDROXY-4-OXO-1,4-AZAPHOSPHINANE-3-CARBOXYLIC ACID], testing at 0.01 µM gave an inhibition of 67% and the inhibition at 0.02 µM turned out to be 83%.

`COc1ccc(-c2cc(O)ccc2CN2CCP(=O)(O)[C@](CCCCN)(C(=O)O)C2)cc1OC` [Example 229, (3S)-3-(4-AMINOBUTYL)-1-[[2-(3,4-DIMETHOXYPHENYL)-4-HYDROXYPHENYL]-METHYL]-4-HYDROXY-4-OXO-1,4-AZAPHOSPHINANE-3-CARBOXYLIC ACID] showed an inhibition at 0.01 µM of 81% and an inhibition at 0.02 µM of 89%.

`Cc1ccc(-c2ccccc2CN2CCP(=O)(O)[C@](CCCCN)(C(=O)O)C2)cc1` [Example 188, (3S)-3-(4-AMINOBUTYL)-4-HYDROXY-1-[[2-(4-METHYLPHENYL)PHENYL]-METHYL]-4-OXO-1,4-AZAPHOSPHINANE-3-CARBOXYLIC ACID] returned an inhibition at 0.01 µM of 64% and an inhibition at 0.02 µM of 86%.

`NCCCC[C@@]1(C(=O)O)CN(Cc2ccc(F)cc2-c2ccc(O)cc2)CCP1(=O)O` [Example 211, (3S)-3-(4-AMINOBUTYL)-1-[[4-FLUORO-2-(4-HYDROXYPHENYL)PHENYL]-METHYL]-4-HYDROXY-4-OXO-1,4-AZAPHOSPHINANE-3-CARBOXYLIC ACID] yielded an inhibition at 0.01 µM of 85% and an inhibition at 0.02 µM of 95%.

In turn, `NCCCC[C@@]1(C(=O)O)CN(Cc2ccc(F)cc2-c2cccs2)CCP1(=O)O` [Example 213, (3S)-3-(4-AMINOBUTYL)-1-[(4-FLUORO-2-THIOPHEN-2-YLPHENYL)METHYL]-4-HYDROXY-4-OXO-1,4-AZAPHOSPHINANE-3-CARBOXYLIC ACID] returned an inhibition at 0.01 µM of 83% and an inhibition at 0.02 µM of 92%.

`NCCCC[C@@]1(C(=O)O)CN(Cc2ccc(F)cc2-c2ccc3ccccc3c2)CCP1(=O)O` [Example 215, (3S)-3-(4-AMINOBUTYL)-1-[(4-FLUORO-2-NAPHTHALEN-2-YLPHENYL)METHYL]-4-HYDROXY-4-OXO-1,4-AZAPHOSPHINANE-3-CARBOXYLIC ACID] came in with an inhibition at 0.01 µM of 82% and an inhibition at 0.02 µM of 91%.

`NCCCC[C@@]1(C(=O)O)CN(Cc2ccc(F)cc2-c2cc3ccccc3s2)CCP1(=O)O` [Example 216, (3S)-3-(4-AMINOBUTYL)-1-[[2-(1-BENZOTHIOPHEN-2-YL)-4-FLUOROPHENYL]-METHYL]-4-HYDROXY-4-OXO-1,4-AZAPHOSPHINANE-3-CARBOXYLIC ACID] returned an inhibition at 0.01 µM of 71% and an inhibition at 0.02 µM of 85%.

On to `NCCCCC1(C(=O)O)CN(Cc2ccsc2-c2ccccc2)CCP1(=O)O` (stereo not shown) [Example 105, 3-(4-AMINOBUTYL)-4-HYDROXY-4-OXO-1-[(2-PHENYLTHIOPHEN-3-YL)METHYL]-1,4-AZAPHOSPHINANE-3-CARBOXYLIC ACID], for which 0.01 µM produced 44% inhibition and at 0.02 µM the inhibition was 66%.

Take `Cc1ncc(-c2ccccc2CN2CCP(=O)(O)[C@](CCCCN)(C(=O)O)C2)n1C` [Example 250, (3S)-3-(4-AMINOBUTYL)-1-[[2-(2,3-DIMETHYLIMIDAZOL-4-YL)PHENYL]-METHYL]-4-HYDROXY-4-OXO-1,4-AZAPHOSPHINANE-3-CARBOXYLIC ACID]: the inhibition at 0.01 µM stood at 88% and 0.02 µM produced 97% inhibition.
